Calls of active or inactive are those of the source. The calls are words filed in the database; no cut-off is given here.
Tests used:
Nicotiana tabacum [1] = test: Induction of systemic acquired resistance against Oidium in Nicotiana tabacum cv. Xanthi nc (tobacco) assessed as decrease in lesion size applied as soil-drench 5 days prior to infection measured after 5 days; format: functional, organism-based
Nicotiana tabacum [2] = test: Induction of N-gene mediated systemic acquired resistance against TMV in Nicotiana tabacum cv. Xanthi nc (tobacco) assessed as decrease in lesion size at 0.1 mg/pot applied by soil-drench 5 days prior to infection measured after 5 days relative to control; format: functional, organism-based
Nicotiana tabacum [3] = test: Induction of N-gene mediated systemic acquired resistance against TMV in transgenic Nicotiana tabacum cv. Xanthi nc (tobacco) expressing bacterial NahG assessed as decrease in lesion size at 0.1 to 2 mg/pot applied by soil-drench 5 days prior to infection measured after 5 days relative to control; format: functional, organism-based
Nicotiana tabacum [4] = test: Induction of systemic acquired resistance in Nicotiana tabacum cv. Xanthi nc (tobacco) assessed as increase in PR5 mRNA level at 1 to 2 mg/pot applied as soil-drench measured after 4 days by Northern blot analysis relative to control; format: functional, organism-based
Nicotiana tabacum [5] = test: Induction of systemic acquired resistance in Nicotiana tabacum cv. Xanthi nc (tobacco) assessed as increase in PR1 mRNA level at 1 to 2 mg/pot applied as soil-drench measured after 4 days by Northern blot analysis relative to control; format: functional, organism-based
Nicotiana tabacum [6] = test: Induction of N-gene mediated systemic acquired resistance against TMV in Nicotiana tabacum cv. Xanthi nc (tobacco) assessed as lesion size at 0.1 mg/pot applied by soil-drench 5 days prior to infection measured after 5 days relative to control; format: functional
[7] = tested on: Pseudomonas amygdali pv. tabaci; test: Antibacterial activity against Pseudomonas syringae pv. tabaci up to 500 ug/ml; format: functional, organism-based
Nicotiana tabacum [8] = test: Induction of systemic acquired resistance in Nicotiana tabacum cv. Xanthi nc (tobacco) assessed as increase in PR1 mRNA level at 0.01 to 0.5 mg/ml applied as foliar spray measured after 4 days by Northern blot analysis relative to control; format: functional, organism-based
Nicotiana tabacum [9] = test: Induction of systemic acquired resistance in transgenic Nicotiana tabacum cv. Xanthi nc (tobacco) expressing bacterial NahG assessed as increase in PR1 mRNA level at 1 to 2 mg/pot applied as soil-drench measured after 4 days by Northern blot analysis relative to control; format: functional, organism-based
Nicotiana tabacum [10] = test: Induction of systemic acquired resistance in Nicotiana tabacum cv. Xanthi nc (tobacco) assessed as effect on free salicylic acid level in leaves at 1 mg/pot applied as soil-drench measured up to 7 days by fluorometric analysis relative to control; format: functional, organism-based
Nicotiana tabacum [11] = test: Induction of N-gene mediated systemic acquired resistance against TMV in Nicotiana tabacum cv. Xanthi nc (tobacco) assessed as lesion size at 1 mg/pot applied by soil-drench 5 days prior to infection measured after 5 days relative to control; format: functional
Nicotiana tabacum [12] = test: Induction of systemic acquired resistance in Nicotiana tabacum cv. Xanthi nc (tobacco) assessed as increase in PR2 mRNA level at 1 to 2 mg/pot applied as soil-drench measured after 4 days by Northern blot analysis relative to control; format: functional, organism-based
Nicotiana tabacum [13] = test: Induction of N-gene mediated systemic acquired resistance against TMV in Nicotiana tabacum cv. Xanthi nc (tobacco) assessed as lesion size at 10 mg/pot applied by soil-drench 5 days prior to infection measured after 5 days relative to control; format: functional
Nicotiana tabacum [14] = test: Induction of systemic acquired resistance in Nicotiana tabacum cv. Xanthi nc (tobacco) assessed as increase in PR1 mRNA level at 1 mg/pot applied as soil-drench measured after 24 hr by Northern blot analysis relative to control; format: functional, organism-based
Nicotiana tabacum [15] = test: Induction of systemic acquired resistance in Nicotiana tabacum cv. Xanthi nc (tobacco) assessed as increase in PR2 mRNA level at 0.01 to 0.5 mg/ml applied as foliar spray measured after 4 days by Northern blot analysis relative to control; format: functional, organism-based
Nicotiana tabacum [16] = test: (§1) Induction of systemic acquired resistance against Pseudomonas syringae pv. tabaci in Nicotiana tabacum cv. Xanthi nc (tobacco) assessed as inhibition of bacterial growth in infected tissues at 1 to 2 mg/pot applied as soil-drench 5 days prior to infection measured after 3 days relative to control; format: functional, organism-based
Nicotiana tabacum [17] = test: as §1, with “decrease” for “inhibition of bacterial growth”, “Nicotiana tabacum (tobacco) wildfire disease symptoms” for “infected tissues”; format: functional, organism-based
Nicotiana tabacum [18] = test: as §1, with “tabaci in transgenic Nicotiana tabacum” for “tabaci in Nicotiana tabacum”, “nc (tobacco) expressing bacterial NahG assessed as” for “nc (tobacco) assessed as”; format: functional, organism-based
Nicotiana tabacum [19] = test: Induction of systemic acquired resistance in Nicotiana tabacum cv. Xanthi nc (tobacco) assessed as increase in PR5 mRNA level at 0.01 to 0.5 mg/ml applied as foliar spray measured after 4 days by Northern blot analysis relative to control; format: functional, organism-based
Nicotiana tabacum [20] = test: Induction of systemic acquired resistance in transgenic Nicotiana tabacum cv. Xanthi nc (tobacco) expressing bacterial NahG assessed as increase in PR1 mRNA level at 0.01 to 0.5 mg/ml applied as foliar spray measured after 4 days by Northern blot analysis relative to control; format: functional, organism-based
Nicotiana tabacum [21] = test: Induction of systemic acquired resistance in Nicotiana tabacum cv. Xanthi nc (tobacco) assessed as effect on total salicylic acid level in leaves at 1 mg/pot applied as soil-drench measured up to 7 days by fluorometric analysis relative to control; format: functional, organism-based

In the case of CSC(=O)c1cccc2nnsc12, the Activity (Nicotiana tabacum [1]) is reported as “Dose-dependent effect” and the Activity (Nicotiana tabacum [2]) is reported as “Active”.
In the case of Cn1nc(Cl)cc1C(=O)O [3-CHLORO-1-METHYL-1H-PYRAZOLE-5-CARBOXYLIC ACID], the Activity (Nicotiana tabacum [3]) is reported as “Active”, the Activity (Nicotiana tabacum [4]) is reported as “Active” and the Activity (Nicotiana tabacum [1]) is reported as “Dose-dependent effect”. The Activity (Nicotiana tabacum [5]) was “Active”, the Activity (Nicotiana tabacum [6]) was 50% and the Activity [7] was “inactive”. For the same molecule, the Activity (Nicotiana tabacum [8]) was “Active”, the Activity (Nicotiana tabacum [9]) was “Active” and the Activity (Nicotiana tabacum [10]) was “inactive”. For the same molecule, the Activity (Nicotiana tabacum [11]) was less than 10%, the Activity (Nicotiana tabacum [12]) was “Active” and the Activity (Nicotiana tabacum [13]) was less than 10%. The Activity (Nicotiana tabacum [14]) was “Active”, the Activity (Nicotiana tabacum [15]) was “Active” and the Activity (Nicotiana tabacum [16]) was “Active”. For the same molecule, the Activity (Nicotiana tabacum [17]) was “Active”, the Activity (Nicotiana tabacum [18]) was “Active” and the Activity (Nicotiana tabacum [19]) was “Active”. For the same molecule, the Activity (Nicotiana tabacum [20]) was “Active” and the Activity (Nicotiana tabacum [21]) was “inactive”.
